Experiments:
TAOK1 = molecular target: T1, TAOK1 (Homo sapiens, UniProt Q7L7X3); set-up: method as in Tsai et al., 2008; settings: ref Tsai et al., 2008; read-out: Published biochemical IC50; cited from earlier work
T1 construct: purchased KINOMEscan (DiscoveRx), San Diego, CA
T1 sequence (Q7L7X3 1-1001): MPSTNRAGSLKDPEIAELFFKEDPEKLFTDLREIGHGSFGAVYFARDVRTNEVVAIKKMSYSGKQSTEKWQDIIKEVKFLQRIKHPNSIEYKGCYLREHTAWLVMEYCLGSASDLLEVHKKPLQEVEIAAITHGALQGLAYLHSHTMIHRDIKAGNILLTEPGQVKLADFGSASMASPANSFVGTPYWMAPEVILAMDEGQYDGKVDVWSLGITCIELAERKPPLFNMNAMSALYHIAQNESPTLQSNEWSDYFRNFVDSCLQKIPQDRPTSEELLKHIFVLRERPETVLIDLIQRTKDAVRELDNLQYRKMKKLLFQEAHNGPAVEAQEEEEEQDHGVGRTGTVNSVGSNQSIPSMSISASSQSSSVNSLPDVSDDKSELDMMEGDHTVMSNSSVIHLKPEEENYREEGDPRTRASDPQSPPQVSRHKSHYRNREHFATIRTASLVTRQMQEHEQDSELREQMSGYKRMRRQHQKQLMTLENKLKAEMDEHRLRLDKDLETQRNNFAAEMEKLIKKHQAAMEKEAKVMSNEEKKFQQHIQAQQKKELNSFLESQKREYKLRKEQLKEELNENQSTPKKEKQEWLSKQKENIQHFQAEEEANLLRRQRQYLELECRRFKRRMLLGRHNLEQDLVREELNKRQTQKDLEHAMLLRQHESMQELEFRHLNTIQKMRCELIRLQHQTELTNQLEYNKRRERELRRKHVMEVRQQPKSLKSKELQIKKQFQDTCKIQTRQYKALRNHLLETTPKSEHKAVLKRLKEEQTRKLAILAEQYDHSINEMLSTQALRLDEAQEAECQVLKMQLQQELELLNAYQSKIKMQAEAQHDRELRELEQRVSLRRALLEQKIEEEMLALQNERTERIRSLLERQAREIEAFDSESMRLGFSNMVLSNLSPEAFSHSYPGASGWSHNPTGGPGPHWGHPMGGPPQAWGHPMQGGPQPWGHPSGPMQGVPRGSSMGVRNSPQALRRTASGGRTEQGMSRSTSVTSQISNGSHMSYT

MKK7 (MAP2K7) = molecular target: T2, MKK7 (MAP2K7) (Homo sapiens, UniProt O14733); test: Quantitative competitive binding assay (KINOMEscan); settings: for remaining binding at 0.05 µM: read-out: Percent control (50 nM); for remaining binding at 0.2 µM: read-out: Percent control (200 nM); for remaining binding at 1 µM: read-out: Percent control (1000 nM); for remaining binding at 10 µM: read-out: Percent control (10 μM)
T2 construct: purchased KINOMEscan (DiscoveRx), San Diego, CA
T2 sequence (O14733 1-419): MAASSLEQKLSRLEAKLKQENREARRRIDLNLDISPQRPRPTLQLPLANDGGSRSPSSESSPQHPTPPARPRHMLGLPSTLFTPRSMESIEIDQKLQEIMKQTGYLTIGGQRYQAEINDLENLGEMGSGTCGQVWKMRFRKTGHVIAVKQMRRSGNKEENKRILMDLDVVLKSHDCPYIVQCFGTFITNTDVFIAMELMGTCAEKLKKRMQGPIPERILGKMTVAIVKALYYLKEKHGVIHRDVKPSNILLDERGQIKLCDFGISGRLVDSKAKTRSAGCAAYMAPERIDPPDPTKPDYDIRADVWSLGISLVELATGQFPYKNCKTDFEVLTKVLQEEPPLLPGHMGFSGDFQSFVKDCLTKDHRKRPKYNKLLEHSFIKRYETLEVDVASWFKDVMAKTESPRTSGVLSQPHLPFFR

MLK3 (MAP3K11) = molecular target: T3, MLK3 (MAP3K11) (Homo sapiens, UniProt Q16584); test: as above
T3 construct: purchased KINOMEscan (DiscoveRx), San Diego, CA
T3 sequence (Q16584 whole entry): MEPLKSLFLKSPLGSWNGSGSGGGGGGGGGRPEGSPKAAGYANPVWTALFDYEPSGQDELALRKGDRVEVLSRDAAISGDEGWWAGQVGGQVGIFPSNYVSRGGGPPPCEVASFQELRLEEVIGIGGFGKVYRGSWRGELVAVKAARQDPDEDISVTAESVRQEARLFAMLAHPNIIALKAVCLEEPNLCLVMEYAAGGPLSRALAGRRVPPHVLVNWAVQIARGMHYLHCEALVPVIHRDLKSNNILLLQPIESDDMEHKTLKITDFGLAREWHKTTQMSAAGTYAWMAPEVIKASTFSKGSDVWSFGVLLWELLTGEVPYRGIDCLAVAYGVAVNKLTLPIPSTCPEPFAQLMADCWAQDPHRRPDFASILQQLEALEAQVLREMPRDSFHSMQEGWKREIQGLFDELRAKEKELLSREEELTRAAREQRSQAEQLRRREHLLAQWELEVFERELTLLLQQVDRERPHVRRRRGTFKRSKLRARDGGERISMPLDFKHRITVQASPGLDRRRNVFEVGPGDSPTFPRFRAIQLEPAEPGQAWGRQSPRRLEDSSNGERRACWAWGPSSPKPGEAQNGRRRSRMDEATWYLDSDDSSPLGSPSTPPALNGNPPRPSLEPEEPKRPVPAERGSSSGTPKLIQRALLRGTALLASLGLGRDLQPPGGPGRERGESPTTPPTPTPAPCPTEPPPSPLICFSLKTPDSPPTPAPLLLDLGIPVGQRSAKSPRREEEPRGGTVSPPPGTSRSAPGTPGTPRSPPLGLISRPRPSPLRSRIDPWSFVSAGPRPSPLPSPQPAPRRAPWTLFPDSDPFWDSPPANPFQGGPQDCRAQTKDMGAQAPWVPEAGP

[1] = test system: epidermal keratinocytes of C57BL/6 mice; test: Acute UVR-induced epidermal apoptosis in mouse skin; settings: in vivo
From the text: Cutaneous squamous cell carcinomas biopsied from patients treated with or without BRAF-inhibitor were obtained either under clinical trials (Roche) or separate IRB approval (LAB08-0750). Staining levels were quantified by counting positively labeled cells and dividing by the total area of the tumor tissue within each sample. To measure tumor areas, all samples were photographed, tumor cells outlined, and total pixel numbers calculated using included image analysis tools in Adobe Photoshop and standardized to a hemacytometer to convert to mm^2. To measure apoptosis in irradiated skin, pyknotic or dyskeratotic epidermal keratinocytes were counted and normalized to length (mm) of epidermis.

SRB1 cells = test: UV-induced apoptosis, FACS Annexin V+, TMRE-low; assay type: cell-based, human; settings: 1 kJ/m^2 UVB, 1 μM, 24 hr, vs DMSO
[2] = test system: phospho-JNK and phospho-p38; settings: A375 and WM35, 24 hr
HaCaT cells = test: UV-induced apoptosis, FACS Annexin V+, TMRE-low; assay type: cell-based, human; settings: 1 kJ/m^2 UVB, 1 μM, 24 hr, vs DMSO
FGR = molecular target: T4, FGR (Homo sapiens, UniProt P09769); test: Quantitative competitive binding assay (KINOMEscan); settings: for IC50: estimated Kd, averaged pointwise estimates, transformed Hill equation, read-out: Calculated estimate of IC50; for remaining binding at 0.05 µM: read-out: Percent control (50 nM); for remaining binding at 0.2 µM: read-out: Percent control (200 nM); for remaining binding at 1 µM: read-out: Percent control (1000 nM); for remaining binding at 10 µM: read-out: Percent control (10 μM)
T4 construct: purchased KINOMEscan (DiscoveRx), San Diego, CA
T4 sequence (P09769 whole entry): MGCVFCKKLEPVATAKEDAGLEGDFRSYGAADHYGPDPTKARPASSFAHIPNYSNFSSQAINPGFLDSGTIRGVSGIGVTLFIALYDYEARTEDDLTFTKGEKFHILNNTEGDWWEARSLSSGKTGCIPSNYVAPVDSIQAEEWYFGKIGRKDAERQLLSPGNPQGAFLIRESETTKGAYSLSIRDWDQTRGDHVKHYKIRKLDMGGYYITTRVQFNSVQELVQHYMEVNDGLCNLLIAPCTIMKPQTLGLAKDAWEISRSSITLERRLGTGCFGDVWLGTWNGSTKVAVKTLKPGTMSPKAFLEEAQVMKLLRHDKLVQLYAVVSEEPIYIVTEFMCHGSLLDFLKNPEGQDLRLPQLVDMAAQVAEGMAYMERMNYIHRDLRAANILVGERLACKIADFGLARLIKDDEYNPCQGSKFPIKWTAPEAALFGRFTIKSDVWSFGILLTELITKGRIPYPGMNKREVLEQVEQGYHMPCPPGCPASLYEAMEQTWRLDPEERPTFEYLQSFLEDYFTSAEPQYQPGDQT

A375 melanoma cell line = settings: ref Tsai et al., 2008; cited from earlier work
MAP3K1 = molecular target: T5, MAP3K1 (Homo sapiens, UniProt Q13233); test: Quantitative competitive binding assay (KINOMEscan); settings: for remaining binding at 0.05 µM: read-out: Percent control (50 nM); for remaining binding at 0.2 µM: read-out: Percent control (200 nM); for remaining binding at 1 µM: read-out: Percent control (1000 nM); for remaining binding at 10 µM: read-out: Percent control (10 μM)
T5 construct: purchased KINOMEscan (DiscoveRx), San Diego, CA
T5 sequence (Q13233 whole entry): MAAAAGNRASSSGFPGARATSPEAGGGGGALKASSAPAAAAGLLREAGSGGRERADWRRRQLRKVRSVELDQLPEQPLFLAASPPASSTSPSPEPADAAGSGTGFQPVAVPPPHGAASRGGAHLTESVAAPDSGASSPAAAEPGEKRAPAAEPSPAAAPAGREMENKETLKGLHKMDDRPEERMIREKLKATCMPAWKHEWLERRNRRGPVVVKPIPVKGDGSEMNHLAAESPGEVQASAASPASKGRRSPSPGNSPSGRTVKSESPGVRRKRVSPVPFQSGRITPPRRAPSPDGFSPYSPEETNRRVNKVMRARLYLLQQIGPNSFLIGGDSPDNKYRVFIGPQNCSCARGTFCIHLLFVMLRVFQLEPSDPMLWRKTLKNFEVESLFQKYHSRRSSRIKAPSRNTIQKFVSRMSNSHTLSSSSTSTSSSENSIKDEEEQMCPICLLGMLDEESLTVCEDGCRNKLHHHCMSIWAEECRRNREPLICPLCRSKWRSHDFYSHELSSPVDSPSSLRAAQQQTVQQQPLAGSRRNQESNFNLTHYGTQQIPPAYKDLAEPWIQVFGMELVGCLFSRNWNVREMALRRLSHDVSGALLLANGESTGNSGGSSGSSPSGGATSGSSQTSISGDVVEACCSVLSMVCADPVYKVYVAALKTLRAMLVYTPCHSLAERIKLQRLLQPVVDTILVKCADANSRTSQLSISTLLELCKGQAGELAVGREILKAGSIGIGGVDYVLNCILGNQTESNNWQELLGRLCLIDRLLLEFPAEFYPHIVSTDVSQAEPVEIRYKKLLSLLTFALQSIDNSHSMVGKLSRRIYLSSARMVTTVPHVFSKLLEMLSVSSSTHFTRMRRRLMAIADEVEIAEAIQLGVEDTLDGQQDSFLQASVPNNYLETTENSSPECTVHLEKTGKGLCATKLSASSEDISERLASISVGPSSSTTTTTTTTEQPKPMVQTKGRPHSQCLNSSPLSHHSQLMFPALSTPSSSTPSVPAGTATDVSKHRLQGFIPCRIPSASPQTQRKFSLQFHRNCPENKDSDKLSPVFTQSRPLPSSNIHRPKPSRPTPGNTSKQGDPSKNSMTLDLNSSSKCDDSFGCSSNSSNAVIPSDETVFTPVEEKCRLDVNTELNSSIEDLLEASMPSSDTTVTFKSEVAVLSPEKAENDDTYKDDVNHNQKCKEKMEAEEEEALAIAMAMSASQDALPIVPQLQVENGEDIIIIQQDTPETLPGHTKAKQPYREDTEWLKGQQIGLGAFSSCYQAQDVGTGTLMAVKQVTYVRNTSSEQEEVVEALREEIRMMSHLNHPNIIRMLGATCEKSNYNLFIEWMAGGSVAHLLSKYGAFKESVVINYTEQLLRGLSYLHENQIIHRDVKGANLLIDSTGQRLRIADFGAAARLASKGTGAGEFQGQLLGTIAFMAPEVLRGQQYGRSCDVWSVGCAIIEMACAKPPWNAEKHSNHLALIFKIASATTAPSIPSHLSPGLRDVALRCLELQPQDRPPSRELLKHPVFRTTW

[3] = test system: E1A and HRAS^G12V-transformed wild-type (WT) MEFs; test: Soft agar colony formation; assay type: cell-based, mouse; settings: 0.2 μM and 1.0 μM, 4–6 weeks
[4] = test system: phospho-MKK4 and phospho-MKK7; test: Western blot, UV-induced phosphorylation of MKK4 and MKK7; settings: cSCC cell lines, HaCaT, NHEK; 1 μM
MINK (MINK1) = molecular target: T6, MINK (MINK1) (Homo sapiens, UniProt Q8N4C8); set-up: method as in Bollag et al., 2010; settings: ref Bollag et al., 2010; read-out: Published biochemical IC50; cited from earlier work
T6 construct: purchased KINOMEscan (DiscoveRx), San Diego, CA
T6 sequence (Q8N4C8 whole entry): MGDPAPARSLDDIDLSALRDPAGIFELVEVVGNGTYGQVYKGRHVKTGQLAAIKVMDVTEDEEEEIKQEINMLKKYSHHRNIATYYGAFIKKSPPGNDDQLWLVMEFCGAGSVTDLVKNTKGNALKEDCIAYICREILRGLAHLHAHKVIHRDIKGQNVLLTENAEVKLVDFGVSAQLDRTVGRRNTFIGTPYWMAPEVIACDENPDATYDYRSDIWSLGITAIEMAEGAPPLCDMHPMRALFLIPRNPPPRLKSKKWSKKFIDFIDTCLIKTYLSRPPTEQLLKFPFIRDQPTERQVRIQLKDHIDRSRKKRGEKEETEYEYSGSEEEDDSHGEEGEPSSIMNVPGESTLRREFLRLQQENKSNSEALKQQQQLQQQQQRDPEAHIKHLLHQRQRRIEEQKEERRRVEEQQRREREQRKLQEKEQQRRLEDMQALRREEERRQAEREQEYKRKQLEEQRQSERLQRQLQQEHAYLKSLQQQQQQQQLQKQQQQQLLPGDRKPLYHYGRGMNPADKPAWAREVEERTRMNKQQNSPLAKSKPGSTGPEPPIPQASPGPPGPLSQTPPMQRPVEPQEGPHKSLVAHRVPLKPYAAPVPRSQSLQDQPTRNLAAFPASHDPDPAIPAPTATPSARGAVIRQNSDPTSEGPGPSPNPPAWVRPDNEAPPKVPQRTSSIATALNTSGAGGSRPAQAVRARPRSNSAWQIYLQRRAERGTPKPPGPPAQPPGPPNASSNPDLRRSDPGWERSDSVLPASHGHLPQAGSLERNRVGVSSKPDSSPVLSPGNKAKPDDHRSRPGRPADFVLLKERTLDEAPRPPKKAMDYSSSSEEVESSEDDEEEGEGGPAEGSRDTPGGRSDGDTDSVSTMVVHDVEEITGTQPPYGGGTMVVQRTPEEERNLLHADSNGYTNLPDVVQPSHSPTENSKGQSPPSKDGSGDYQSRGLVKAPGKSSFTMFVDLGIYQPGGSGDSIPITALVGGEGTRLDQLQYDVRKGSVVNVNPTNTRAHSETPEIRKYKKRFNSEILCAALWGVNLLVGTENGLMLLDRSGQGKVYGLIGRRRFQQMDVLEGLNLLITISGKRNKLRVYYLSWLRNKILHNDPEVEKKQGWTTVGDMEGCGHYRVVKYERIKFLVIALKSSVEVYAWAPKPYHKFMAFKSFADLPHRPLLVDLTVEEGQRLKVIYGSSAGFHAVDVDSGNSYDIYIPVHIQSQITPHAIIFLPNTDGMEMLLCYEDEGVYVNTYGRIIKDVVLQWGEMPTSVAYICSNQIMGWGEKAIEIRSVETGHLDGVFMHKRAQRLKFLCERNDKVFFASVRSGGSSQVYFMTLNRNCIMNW

full length MAP4K5 = molecular target: T7, full length MAP4K5 (Homo sapiens, UniProt Q9Y4K4); test: In vitro kinase assay (Reaction Biology); assay type: biochemical
T7 construct: and full length MAP4K5 (MBP substrate, ATP 10 μM) (Reaction Biology); purchased Reaction Biology
T7 sequence (Q9Y4K4 whole entry): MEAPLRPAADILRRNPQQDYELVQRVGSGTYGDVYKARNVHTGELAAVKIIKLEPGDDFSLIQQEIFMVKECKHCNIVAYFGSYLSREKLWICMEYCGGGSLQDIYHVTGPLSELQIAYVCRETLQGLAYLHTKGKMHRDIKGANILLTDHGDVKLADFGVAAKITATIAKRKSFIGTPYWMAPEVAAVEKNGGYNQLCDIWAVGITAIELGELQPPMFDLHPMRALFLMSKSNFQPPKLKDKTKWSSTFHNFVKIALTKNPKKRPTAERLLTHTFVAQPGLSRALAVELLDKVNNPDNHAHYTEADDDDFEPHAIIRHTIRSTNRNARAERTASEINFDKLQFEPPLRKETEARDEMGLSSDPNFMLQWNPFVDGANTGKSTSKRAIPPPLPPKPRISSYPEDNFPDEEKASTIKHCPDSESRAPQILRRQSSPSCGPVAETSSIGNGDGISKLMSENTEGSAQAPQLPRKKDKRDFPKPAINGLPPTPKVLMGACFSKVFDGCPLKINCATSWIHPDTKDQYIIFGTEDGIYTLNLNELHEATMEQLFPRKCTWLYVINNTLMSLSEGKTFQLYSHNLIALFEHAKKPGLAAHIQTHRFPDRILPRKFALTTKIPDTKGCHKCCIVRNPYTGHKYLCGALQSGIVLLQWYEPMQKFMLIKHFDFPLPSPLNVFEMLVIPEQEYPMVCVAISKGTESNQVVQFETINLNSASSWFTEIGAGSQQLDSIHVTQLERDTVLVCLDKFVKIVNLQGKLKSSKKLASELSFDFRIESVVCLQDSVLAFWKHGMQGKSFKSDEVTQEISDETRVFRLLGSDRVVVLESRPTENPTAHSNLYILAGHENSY

CCCS(=O)(=O)Nc1ccc(F)c(C(=O)c2c[nH]c3ncc(Cl)cc23)c1F [PLX4720]
IC50 (TAOK1): > 5000 nM | remaining binding at 0.05 µM (MKK7 (MAP2K7)): 100% | remaining binding at 0.2 µM (MKK7 (MAP2K7)): 100% | remaining binding at 1 µM (MKK7 (MAP2K7)): 100% | remaining binding at 10 µM (MKK7 (MAP2K7)): 84% | remaining binding at 0.05 µM (MLK3 (MAP3K11); read-out: Percent control (50 nM)): 100% | remaining binding at 0.2 µM (MLK3 (MAP3K11); read-out: Percent control (200 nM)): 100% | remaining binding at 1 µM (MLK3 (MAP3K11); read-out: Percent control (1000 nM)): 100% | remaining binding at 10 µM (MLK3 (MAP3K11); read-out: Percent control (10 μM)): 100% | apoptotic epidermal keratinocytes in irradiated skin [1]: 4.9 ± 0.3 apoptotic cells/mm skin | suppression of UV-induced apoptosis (SRB1 cells): at least 70% | UV-mediated induction of phospho-p38 and phospho-JNK [2]: significant suppression | suppression of UV-induced apoptosis (HaCaT cells): at least 70% | IC50 (FGR): 153 nM | remaining binding at 0.05 µM (FGR): 69% | remaining binding at 0.2 µM (FGR): 38% | remaining binding at 1 µM (FGR): 11% | remaining binding at 10 µM (FGR): 2.5% | GI50 (A375 melanoma cell line): 500 nM | remaining binding at 0.05 µM (MAP3K1): 96% | remaining binding at 0.2 µM (MAP3K1): 100% | remaining binding at 1 µM (MAP3K1): 92% | remaining binding at 10 µM (MAP3K1): 84% | colony formation [3]: significant colony formation advantage | UV-induced phosphorylation of MKK4 and MKK7 [4]: inhibited

CCCS(=O)(=O)Nc1ccc(F)c(C(=O)c2c[nH]c3ncc(-c4ccc(Cl)cc4)cc23)c1F [vemurafenib]
remaining binding at 0.05 µM (MKK7 (MAP2K7)): 97% | remaining binding at 0.2 µM (MKK7 (MAP2K7)): 95% | remaining binding at 1 µM (MKK7 (MAP2K7)): 94% | remaining binding at 10 µM (MKK7 (MAP2K7)): 85% | IC50 (MINK (MINK1)): > 1000 nM | IC50 (FGR): 149 nM | remaining binding at 0.05 µM (FGR): 65% | remaining binding at 0.2 µM (FGR): 49% | remaining binding at 1 µM (FGR): 13% | remaining binding at 10 µM (FGR): 1.6% | remaining binding at 0.05 µM (MAP3K1): 98% | remaining binding at 0.2 µM (MAP3K1): 84% | remaining binding at 1 µM (MAP3K1): 89% | remaining binding at 10 µM (MAP3K1): 81% | UV-induced phosphorylation of MKK4 and MKK7 [4]: suppressed | IC50 (full length MAP4K5; MBP substrate, ATP 10 μM, read-out: biochemical IC50): 354 ± 26 nM | remaining activity at 1 µM (full length MAP4K5; at 1 μM, read-out: residual activity): 25.7 ± 0.6%
